Assay results: patent publication US20130243801A1, “EPITOPE THERAPY FOR INFECTIOUS DISEASES” (NEW YORK UNIVERSITY, priority 2010, published 2013)
Where no end group is shown, it is not given here.

Tests used:
[1] = mouse, in vivo; for signs of toxicity: iv
[2] = target: complex of peptide 25 (aa 240-254) of M. tuberculosis Ag85B and the mouse MHC II allele I-A^b (Mycobacterium tuberculosis; mouse) (UniProt P14434); assay: cell-based or functional assay

| Substance | morbidity or mortality [1] | signs of toxicity [1] | frequency of IFN-γ+ P25TCRTh1 cells in the lungs of H37Rv-infected mice six hours after intravenous peptide 25 [2] |
| --- | --- | --- | --- |
| FQDAYNAAGGHNAVF [peptide 25, FQDAYNAAGGHNAVF] | no morbidity or mortality was observed | Neither group of mice displayed any signs of toxicity |  |
| ISQAVHAAHAEINEAGR [OVA peptide, ISQAVHAAHAEINEAGR, reference compound] |  | Neither group of mice displayed any signs of toxicity |  |
| P25TCR transgenic T-cell antigen receptor (on P25TCRTh1 CD4+ Th1 effector cells from P25TCR-Tg mice) |  |  | 20 to 50% |
